1 compound from patent US20100204149A1, “USE OF OCTREOTIDE AS A THERAPEUTIC AGENT” (priority 2007, published 2010) can be followed below.

Data set [1] can be described thus: Cell viability (dye uptake) in HBV assay. Format: cell-based. As to conditions: human, HepG2-2.2.15, peptide 10 micrograms per ml.
A further data set has as its system HCMV strain AD169. The data set is described as follows: HCMV plaque reduction assay in MRC-5 cells. Format: cell-based. As to conditions: peptide 10 micrograms per ml, 7-10 days. The source says: Ganciclovir was used as positive control.
Another data set relates to MRSA. The data set is described as follows: Methicillin Resistant Staphylococcus Aureus (MRSA) assay. Type of data set: cell-based. Particulars: peptide 10 micrograms per ml, read visually. The method, then: (§1) The antibacterial assay was conducted using clear, U-bottom 96-well microtiter plates. Cation-adjusted Mueller-Hinton Broth (MHB) was used for testing MRSA. The peptide of the invention (0.1 ml of each—10 micrograms per ml—) was dispensed into wells in duplicate. Then the wells were inoculated with 5×10^5 CFU/mL MRSA in 0.1 ml volume. For control purposes, each plate included 4 wells containing media without bacterial inoculum and 4 wells containing medium with inoculum but without peptide. The plates were incubated for 12 h at 37° C., and read visually 18-24 hours post-incubation. Growth control of MRSA was examined first to determine adequacy of media preparations and growth conditions. Acceptable growth is defined as ≧2 mm wide button of cells at the bottom of each sample well, or obvious turbidity in the culture supernatant. Test wells were examined and scored as positive/negative for activity. A positive score for activity is based on complete inhibition of macroscopic growth of the test MRSA.

Another data set concerns Streptococcus pneumoniae. The data set is described as follows: Streptococcus pneumoniae assay. Format: cell-based. As to conditions: peptide 10 micrograms per ml, read visually. The protocol:
as §1, with “Streptococcus pneumoniae.” for “MRSA.”, “Streptococcus pneumoniae” for “MRSA”

Another data set has as its system Human A549 cells. The data set is described as follows: Apoptosis prevention assay (C2 ceramide, Annexin-5). As to conditions: pretreated 30 min with peptide 10 micrograms per ml. Format: cell-based. An excerpt:
Human A549 cells (carcinomic human alveolar basal epithelial cells) were utilized in the experiments employing the Annexin-5 apoptosis assay. Annexin-5 is a member of a highly conserved protein family that binds acidic phospholipids in a calcium-dependent manner. […] Phosphatidylserine is translocated from the inner side of the plasma membrane to the outer layer when cells undergo death by apoptosis or cell necrosis and serves as a signal by which cell destined for death are recognized by phagocytes. A549 cells were pretreated for 30 min with test peptide -10 micrograms per ml—followed by the exposure to C2 ceramide. Ceramide mediates cell apoptosis through the activation of the mitogen activating protein kinase (MAPK) and the stress activated kinase (JNK/SAPK). C2 ceramide is a synthetic, membrane soluble analog of ceramide.

For data set [2], the system named is spleen cells of Ovalbumin immunized Balb/c mice. The data set is described as follows: Th1/Th2 cytokine profiling assay. Type of data set: cell-based, mouse. Particulars: peptide 10 micrograms per ml; Ovalbumin restimulation; 72 hours. An excerpt:
The Balb/c mice (originated in 1923, it is a popular strain and is used in many different research disciplines. Also classified as an inbred from the production of 20 or more successive brother-sister matings, the Balb/c mouse is albino and small in size) were immunized on Days 1, 15, and 29 with Ovalbumin (Ovalbumin is the main protein found in egg white, commonly used to stimulate an immunological reaction in test animals) in PBS (5 micrograms/injection). On day 50, spleens of the mice were harvested (3 weeks after last boost with Ovalbumin). Cells were cultured (2×10^5/well in triplicate) and incubated with culture medium or test peptide—10 micrograms per ml—for 30 min. Thereafter, additional Ovalbumin was added to the cells at 10 micrograms/ml for in vitro restimulation of the cells. 72 hours later, cell supernatants were harvested and assayed using the Becton Dickinson Mouse Th1/Th2 Cytokine CBA Kit. This kit can be used to measure Interleukin-2 (IL-2), Interleukin-4 (IL-4), Interleukin-5 (IL-5), Interferon-γ (IFN-γ), and Tumor Necrosis Factor-α (TNF-α) protein levels in a single sample. The kit performance has been optimized for analysis of physiologically relevant concentrations ([…] levels) of specific cytokine proteins in tissue culture supernatants and serum samples.

Data set [3] deals with macrophages from human PBMC. The data set is described as follows: TNF alpha production assay in LPS-stimulated macrophages. Type of data set: cell-based. As to conditions: TNF alpha ELISA; peptide 10 micrograms per ml; lipopolysaccharide 200 ng/ml; overnight. The method, then: The macrophages were prepared by adherence of PBMC to the plastic wells of the plates. After 8 days in culture in the presence of recombinant human macrophage-colony stimulating factor at 2 ng/ml, differentiated macrophages were preincubated with test peptide—10 micrograms per ml—for 30 min, followed by in-well stimulation by the addition of lipopolysaccharide at a final concentration of 200 ng/ml. Not stimulated macrophages served as negative background control.
After overnight incubation, supernatants from the control and LPS-stimulated cultures were harvested and assayed for TNF alpha production employing a TNF alpha specific ELISA.
In general terms: In an ELISA, binding on a coated surface is turned into a signal by an enzyme label.

Data set [4] relates to Primary Human endothelial cells (HUVEC). The data set is described as follows: Endothelial cell migration assay. Type of data set: cell-based. As to conditions: peptide 10 micrograms per ml, 22 hours. The protocol: Endothelial cell migration is a prerequisite for the process of neo-vascularization or angiogenesis which is crucial for on-site recruitment of blood vessel formation. Primary Human endothelial cells (HUVEC) were seeded in insert chambers with 3 micrometer pore size of multi-transwell plate for 6 hours at 37° C. in Endothelial Cell Basal Medium (EBM) supplemented with 0.1% bovine serum albumin. Thereafter, designated concentration of test peptide—10 micrograms per ml—was added in duplicate wells. The endothelia were allowed to migrate for 22 hours at 37° C., then, migrated cells were fixed and stained with Hoechst 33342 dye. Images of 3 fields per insert were taken and the number of migrated cells per field were quantified using the ImageProPlus software. Data were analyzed for the average number of the migrated cells and standard deviation of six data points for each treatment condition. Active test peptide against HUVEC migration was determined based on 50% inhibition of migrated cells as compared with the control. Statistic p values were computed using the Student's t-test.

Data set [5] deals with Human Peripheral Blood Mononuclear Cells (PBMC). As to conditions: B cell proliferation; peptide 10 micrograms per ml; 3 days.
Method: Human Peripheral Blood Mononuclear Cells (PBMC) were obtained from normal human donors. The B cell proliferation was induced by stimulation of the cells with the B cell mitogen Staphylococcus aureus Cowans I (SAC) plus Interleukin-2, either in the absence (positive proliferation control), or in the presence of test peptide—10 micrograms per ml—to examine their effects on the B cell response. 10^5/well PBMC were plated in 96-well microtiter plates and assayed in duplicate with the peptide. Cell cultures were incubated at 37° C. for 3 days in a 5% CO2 incubator and were thereafter pulsed with 1 microCi/well ^3H-thymidine for additional 12 hours of culture. At the end of incubation time, the plates were harvested and the cells counted by liquid scintillation for the incorporation of ^3H-thymidine as a measure of B cell proliferation.
Another data set relates to HIV-1IIIB. The data set is described as follows: HIV-1 antiviral assay (CPE reduction) in CEM-SS cells. Particulars: peptide 10 micrograms per ml; 6 days post-infection; MTS.

Usually viability stands for a read-out of living cells in per cent, often relative to untreated cells. Low values mean a greater loss of cells, high ones better survival. For orientation: % inhibition means the drop in the measured response relative to a control, in per cent. In turn, `C[C@@H](O)[C@@H]1NC(=O)[C@H](CCCCN)NC(=O)[C@@H](Cc2c[nH]c3ccccc23)NC(=O)[C@H](Cc2ccccc2)NC(=O)[C@@H](NC(=O)[C@H](N)Cc2ccccc2)CSSC[C@@H](C(=O)N[C@H](CO)[C@@H](C)O)NC1=O` [Octreotide, H-D-Phe-Cys-Phe-D-Trp-Lys-Thr-Cys-L-threoninol] showed a viability at 144 h, 10 micrograms per ml in data set [1] of 97.8%. In addition, in the data set on HCMV strain AD169, the “% plaque reduction” value worked out at 0.0%. For the same compound, in the data set with MRSA, the “% inhibition” value is 0.0%. Further, the “% inhibition” value in the data set on Streptococcus pneumoniae was determined as 100.0%. Also, the “% prevention of ceramide induced apoptosis” value with Human A549 cells is 0.0%. For the same compound, in data set [2], the “IFNγ spleen cells; TH1 response (% of control)” value was 56.0 % of control, the “IL-2 spleen cells (% of control)” value was 159.5 % of control, the “IL-4 spleen cells; TH2 response (% of control)” value is recorded as 114.4 % of control and the “IL-5 spleen cells; TH2 response (% of control)” value is recorded as 96.1 % of control. For the same compound, the “TNF-a spleen cells; TH1 response (% of control)” value in data set [2] is 113.0 % of control. For the same compound, the “% of LPS induction” value in data set [3] is listed as 105.8%. For the same compound, the “% inhibition of migration” value in [4] is reported as −24%. The “% of SAC/IL2 induced control” value in data set [5] is on record as 115.3%. In addition, the “% CPE reduction in HIV-1 infected CEM-SS cells” value with HIV-1IIIB is 0.0%.
